{
  "source": "patent US20190216707A1",
  "about": "“COMPOSITION FOR PREVENTING HAIR LOSS AND PROMOTING HAIR GROWTH, COMPRISING PHYTOESTROGEN AS AN ACTIVE INGREDIENT” (STEMORE CO., LTD., priority 2016, published 2019)",
  "key": {"C3H/HeNCrljOri mice": {"tested_on": "C3H/HeNCrljOri mice", "assay": "Hair growth promotion on the hair-removed back of mice", "type": "in vivo", "conditions": "PBS containing 1 μM compound subcutaneously injected, 2 weeks; for hair cycle induction / hair growth, visually confirmed, compared to the non-administered group: FIG. 2; for hair weight compared with the minoxidil-administered control / hair weight relative to the non-administered control: FIG. 3", "from_the_text": "In particular, to confirm the effects of DO-10B, DO-14, DO-17, and DO-20 on hair growth promotion when applied and subcutaneously administered, 6-week-old male C3H/HeNCrljOri mice were purchased and divided into a negative control, a positive control (minoxidil-treated group), and groups treated with DO-10B, DO-14, DO-17, and DO-20 to be used for experiments. To confirm a hair growth effect in the mice, when the mice became 6 weeks of age, first, the hair of the back of each mouse was removed using a clipper.\nTo confirm the effects of DO-10B, DO-14, DO-17, and DO-20 on hair growth promotion when subcutaneously injected, PBS containing 1 μM DO-10B, DO-14, DO-17, and DO-20 was subcutaneously injected into the hair-removed backs of mice at a daily cycle of 2 to 3 times, and the mice were raised for a total of 2 weeks. After the end of the rearing period, the hair of the back of each mouse was removed again using a mouse clipper, and the weight of the collected hair was measured to compare the hair weights of the non-administered group and the minoxidil-administered group."}, "[1]": {"tested_on": "immortalized dermal papilla cells (I-DPCs)", "assay": "Proliferation of immortalized dermal papilla cells (Incucyte, phase object confluence)", "type": "cell-based, Human", "conditions": "FIGS. 1A to 1D; for effect on the proliferation of I-DPCs (phase object confluence, %): 0.1 μM, 1 μM or 10 μM, cultured for 72 hours; for proliferation of I-DPCs: concentration of 1 μM to 10 μM", "description": "Human-derived immortalized dermal papilla cells (I-DPCs; donated by Professor Sungyoung Kwan of the College of Medicine at Kyungpook National University; Shin, Seung-Hyun, et al. “Establishment and characterization of an immortalized human dermal papilla cell line.” BMB reports 44.8 (2011): 512-516.) were cultured in Follicle Dermal Papilla Cell Growth Medium supplemented with 10% fetal bovine serum […] and penicillin-streptomycin antibiotics for 3 days to prepare a dermal papilla cell line. On day 3 of culture, the cells cultured in the culture dish were transferred to a 96-well plate, and when the cells were attached to the bottom of each well, each well was treated with DO-10B, DO-14, DO-17, and DO-20 at a concentration of 10 μM and cultured for 48 hours.\nIn particular, the I-DP cell line was prepared by culturing under the same conditions as in Example <2-1>, and the cells were treated with DO-10B, DO-14, DO-17, and DO-20 at a concentration of 0.1 μM, 1 μM, or 10 μM in a cell culture medium, and then cultured for a total of 72 hours. At 0, 12, 24, 36, 48, 60, and 72 hours after the start of culture, the degree of saturation of cells attached to the bottom of each well (phase object confluence, %) was confirmed using the Incucyte System™."}},
  "data": [
    {"compound": "(3R)-5′-methoxyvestiol [DO-14]", "values": [
      {"measurement": "hair cycle induction", "setting": "C3H/HeNCrljOri mice", "result": "induced to the anagen phase"},
      {"measurement": "hair growth, visually confirmed, compared to the non-administered group", "setting": "C3H/HeNCrljOri mice", "result": "significant hair growth"},
      {"measurement": "hair weight compared with the minoxidil-administered control", "setting": "C3H/HeNCrljOri mice", "result": "equal to or greater than that of the minoxidil-administered control"},
      {"measurement": "hair weight relative to the non-administered control", "setting": "C3H/HeNCrljOri mice", "result": "about two-fold or more"},
      {"measurement": "effect on the proliferation of I-DPCs (phase object confluence, %)", "setting": "[1]", "result": "concentration-dependent manner"},
      {"measurement": "proliferation of I-DPCs", "setting": "[1]", "result": "significantly promoted"}
    ]},
    {"compound": "violanone [DO-10B]", "values": [
      {"measurement": "hair cycle induction", "setting": "C3H/HeNCrljOri mice", "result": "induced to the anagen phase"},
      {"measurement": "hair growth, visually confirmed, compared to the non-administered group", "setting": "C3H/HeNCrljOri mice", "result": "significant hair growth"},
      {"measurement": "hair weight compared with the minoxidil-administered control", "setting": "C3H/HeNCrljOri mice", "result": "equal to or greater than that of the minoxidil-administered control"},
      {"measurement": "hair weight relative to the non-administered control", "setting": "C3H/HeNCrljOri mice", "result": "about two-fold or more"},
      {"measurement": "effect on the proliferation of I-DPCs (phase object confluence, %)", "setting": "[1]", "result": "concentration-dependent manner"},
      {"measurement": "proliferation of I-DPCs", "setting": "[1]", "result": "significantly promoted"}
    ]},
    {"compound": "COc1cc2c(cc1O)[C@@H]1COc3cc(O)ccc3[C@@H]1O2", "note": "[DO-17, (6aR, 11aR)-3,8-dihydroxy-9-methoxypterocarpan]", "values": [
      {"measurement": "hair cycle induction", "setting": "C3H/HeNCrljOri mice", "result": "induced to the anagen phase"},
      {"measurement": "hair growth, visually confirmed, compared to the non-administered group", "setting": "C3H/HeNCrljOri mice", "result": "significant hair growth"},
      {"measurement": "hair weight compared with the minoxidil-administered control", "setting": "C3H/HeNCrljOri mice", "result": "equal to or greater than that of the minoxidil-administered control"},
      {"measurement": "hair weight relative to the non-administered control", "setting": "C3H/HeNCrljOri mice", "result": "about two-fold or more"},
      {"measurement": "effect on the proliferation of I-DPCs (phase object confluence, %)", "setting": "[1]", "result": "concentration-dependent manner"},
      {"measurement": "proliferation of I-DPCs", "setting": "[1]", "result": "significantly promoted"}
    ]},
    {"compound": "COc1ccc2c(c1)OC1c3ccc(O)cc3OCC21", "note": "(stereo not drawn) [DO-20, 3-hydroxy-9-methoxypterocarpan]", "values": [
      {"measurement": "hair cycle induction", "setting": "C3H/HeNCrljOri mice", "result": "induced to the anagen phase"},
      {"measurement": "hair growth, visually confirmed, compared to the non-administered group", "setting": "C3H/HeNCrljOri mice", "result": "significant hair growth"},
      {"measurement": "hair weight compared with the minoxidil-administered control", "setting": "C3H/HeNCrljOri mice", "result": "equal to or greater than that of the minoxidil-administered control"},
      {"measurement": "hair weight relative to the non-administered control", "setting": "C3H/HeNCrljOri mice", "result": "about two-fold or more"},
      {"measurement": "effect on the proliferation of I-DPCs (phase object confluence, %)", "setting": "[1]", "result": "concentration-dependent manner"},
      {"measurement": "proliferation of I-DPCs", "setting": "[1]", "result": "significantly promoted"}
    ]}
  ]
}
